{
  "source": "patent US20110015080A1",
  "about": "“Solution-based methods for RNA expression profiling” (MASSACHUSETTS INSTITUTE OF TECHNOLOGY, priority 2005, published 2011)",
  "system": "HL60 (human promyelocytic leukemia) cells",
  "assay": "LMA-FlexMAP bead-based gene expression signature analysis of total RNA from HL60 cells treated with tretinoin or DMSO (ninety transcripts); as to FlexMap GAPDH M LUA#94: test concentration or dose not given here; as to FlexMap NM 000147 LUA#29: test concentration or dose not given here; as to FlexMap NM 001948 LUA#84: test concentration or dose not given here",
  "key": {"[1]": {"settings": "Experiment 2, Tretinoin, replicate columns"}},
  "note": "Values joined by “and” are separate entries in the source; they are usually repeats but may differ in a detail not shown here. Equal entries are not always repeated.",
  "data": [
    {"compound": "CC1=C(/C=C/C(C)=C/C=C/C(C)=C/C(=O)O)C(C)(C)CCC1", "note": "[tretinoin, all-trans-retinoic acid]", "values": [
      {"measurement": "NM_005952 LUA#66 FlexMAP signal", "setting": "Experiment 1, tretinoin-treated HL60, transcript NM_005952, replicate columns", "value": "172 and 212 and 149 and 198.5 and 72.5 and 189 and 203 and 95.5 and 188.5 and 182"},
      {"measurement": "NM_005980 LUA#73 FlexMAP signal", "setting": "Experiment 1, tretinoin-treated HL60, transcript NM_005980, replicate columns", "value": "145 and 173 and 163 (2×) and 57 and 142 and 74 and 149.5 and 151"},
      {"measurement": "NM_006019 LUA#35 FlexMAP signal", "setting": "Experiment 1, tretinoin-treated HL60, transcript NM_006019, replicate columns", "value": "746 and 867 and 569 and 818 and 186 and 828 and 762 and 287 and 767 and 734.5"},
      {"measurement": "NM_006138 LUA#56 FlexMAP signal", "setting": "Experiment 1, tretinoin-treated HL60, transcript NM_006138, replicate columns", "value": "114 and 130 and 93 and 124 and 51.5 and 113.5 and 115.5 and 66 and 122 and 114.5"},
      {"measurement": "NM_006432 LUA#27 FlexMAP signal", "setting": "Experiment 1, tretinoin-treated HL60, transcript NM_006432, replicate columns", "value": "1294.5 and 1495 and 1081.5 and 1409.5 and 397 and 1446 and 1405 and 625 and 1345 and 1203"},
      {"measurement": "NM_006452 LUA#71 FlexMAP signal", "setting": "Experiment 1, tretinoin-treated HL60, transcript NM_006452, replicate columns", "value": "78.5 and 76 and 67.5 and 79.5 and 41 and 75 and 68 and 53.5 and 82 and 74"},
      {"measurement": "NM_006985 LUA#58 FlexMAP signal", "setting": "Experiment 1, tretinoin-treated HL60, transcript NM_006985, replicate columns", "value": "52 and 54 and 47 and 59 and 37 and 55 and 56 and 40 and 57 and 51"},
      {"measurement": "NM_007282 LUA#16 FlexMAP signal", "setting": "Experiment 1, tretinoin-treated HL60, transcript NM_007282, replicate columns", "value": "60.5 and 60 and 39 and 64.5 (2×) and 42.5 and 64 and 62 and 56 and 61"},
      {"measurement": "NM_014333 LUA#26 FlexMAP signal", "setting": "Experiment 1, tretinoin-treated HL60, transcript NM_014333, replicate columns", "value": "472 and 584 and 366.5 and 531 and 134 and 492 and 530 and 197.5 and 497 and 459.5"},
      {"measurement": "NM_014366 LUA#61 FlexMAP signal", "setting": "Experiment 1, tretinoin-treated HL60, transcript NM_014366, replicate columns", "value": "213 and 263 and 163 and 235 (2×) and 66 and 231 (2×) and 97 and 209.5"},
      {"measurement": "NM_014573 LUA#70 FlexMAP signal", "setting": "Experiment 1, tretinoin-treated HL60, transcript NM_014573, replicate columns", "value": "135 and 155 (2×) and 99 and 153.5 and 61 and 138 and 79 and 138.5 and 144.5"},
      {"measurement": "NM_015201 LUA#57 FlexMAP signal", "setting": "Experiment 1, tretinoin-treated HL60, transcript NM_015201, replicate columns", "value": "181 and 226.5 and 139 and 222 and 64 and 208 and 203 and 87 and 194.5 and 183"},
      {"measurement": "NM_018115 LUA#63 FlexMAP signal", "setting": "Experiment 1, tretinoin-treated HL60, transcript NM_018115, replicate columns", "value": "506.5 and 644 and 552.5 and 735.5 and 143 and 690 and 601 and 227.5 and 582 and 418"},
      {"measurement": "NM_018164 LUA#69 FlexMAP signal", "setting": "Experiment 1, tretinoin-treated HL60, transcript NM_018164, replicate columns", "value": "140.5 and 177 and 131 and 165 and 57 and 152.5 and 155 and 75 and 143 and 142"},
      {"measurement": "NM_018256 LUA#83 FlexMAP signal", "setting": "Experiment 1, tretinoin-treated HL60, transcript NM_018256, replicate columns", "value": "1557 and 747 and 897 and 726 and 388 and 903 and 998 and 589 and 1256.5 and 1208"},
      {"measurement": "NM_018890 LUA#33 FlexMAP signal", "setting": "Experiment 1, tretinoin-treated HL60, transcript NM_018890, replicate columns", "value": "705 and 824 and 537.5 and 758 and 187.5 and 788 and 743.5 and 293.5 and 719 and 712"},
      {"measurement": "NM_019058 LUA#75 FlexMAP signal", "setting": "Experiment 1, tretinoin-treated HL60, transcript NM_019058, replicate columns", "value": "143.5 and 158 (2×) and 143 and 164 and 59 and 152 and 79.5 and 148.5 and 129"},
      {"measurement": "NM_020117 LUA#78 FlexMAP signal", "setting": "Experiment 1, tretinoin-treated HL60, transcript NM_020117, replicate columns", "value": "527 and 607 and 408 and 584.5 and 145 and 554 and 564 and 230 and 529.5 and 519"},
      {"measurement": "NM_021103 LUA#41 FlexMAP signal", "setting": "Experiment 1, tretinoin-treated HL60, transcript NM_021103, replicate columns", "value": "2412 and 2719 and 2257.5 and 2689 and 925 and 2668.5 and 2611 and 1370 and 2590 and 2454"},
      {"measurement": "NM_021203 LUA#80 FlexMAP signal", "setting": "Experiment 1, tretinoin-treated HL60, transcript NM_021203, replicate columns", "value": "547 and 654 and 442.5 and 642.5 and 151 and 578.5 and 611 and 228.5 and 563 and 546"},
      {"measurement": "NM_021974 LUA#64 FlexMAP signal", "setting": "Experiment 1, tretinoin-treated HL60, transcript NM_021974, replicate columns", "value": "1003 and 1158 and 872 and 1105 and 293.5 and 1102.5 and 1052.5 and 477.5 and 1068 and 955"},
      {"measurement": "NM_024045 LUA#65 FlexMAP signal", "setting": "Experiment 1, tretinoin-treated HL60, transcript NM_024045, replicate columns", "value": "124 and 146 and 100 and 145 and 52 and 141 and 142 and 69 and 133 and 119"},
      {"measurement": "TFRC LUA#92 FlexMAP signal", "setting": "Experiment 1, tretinoin-treated HL60, transcript TFRC, replicate columns", "value": "250 and 305 and 191.5 and 285 and 81.5 and 280.5 and 289 and 109 and 272 and 251.5"},
      {"measurement": "FlexMap ACTB LUA#91", "setting": "[1]", "value": "2807 and 2986 and 107 and 2939 and 1020 and 2820 and 2870 and 2791 and 2727 and 2873.5"},
      {"measurement": "FlexMap GAPDH_3 LUA#95", "setting": "[1]", "value": "3075 and 2896 and 139.5 and 2850 and 1137 and 3025 and 3066 and 2936 and 2973 and 3162.5"},
      {"measurement": "FlexMap GAPDH_5 LUA#93", "setting": "[1]", "value": "1888 and 1977.5 and 72 and 1965.5 and 509 and 1847 and 2001 and 1834.5 and 1691 and 1994"},
      {"measurement": "FlexMap GAPDH_M LUA#94", "setting": "[1]", "value": "1814 and 1595.5 and 73 and 1871 and 514 and 1911 and 2010.5 and 1693.5 and 1762.5 and 1932.5"},
      {"measurement": "FlexMap NM_000147 LUA#29", "setting": "[1]", "value": "1102 and 1135 and 36 and 1106 and 236 and 1132 and 1122.5 and 1051 and 1086 and 1171"},
      {"measurement": "FlexMap NM_000211 LUA#39", "setting": "[1]", "value": "1639.5 and 1219 and 89 and 1828 and 470 and 1717 and 1734.5 and 1593.5 and 1570 and 1763"},
      {"measurement": "FlexMap NM_000250 LUA#87", "setting": "[1]", "value": "236 and 228 and 39 and 249 and 70 and 246 and 243 and 232 and 239.5 and 253"},
      {"measurement": "FlexMap NM_000414 LUA#22", "setting": "[1]", "value": "564.5 and 544 and 34 and 547 and 115.5 and 596 and 561.5 and 550.5 and 543 and 598.5"},
      {"measurement": "FlexMap NM_000433 LUA#28", "setting": "[1]", "value": "786.5 and 574 and 34 and 810 and 158 and 860 and 842 and 753 and 724 and 823"},
      {"measurement": "FlexMap NM_000584 LUA#30", "setting": "[1]", "value": "2339.5 and 2517.5 and 72 and 2315 and 665 and 2389 and 2341.5 and 2247 and 2269 and 2450"},
      {"measurement": "FlexMap NM_000884 LUA#81", "setting": "[1]", "value": "963.5 and 841 and 61 and 951 and 259.5 and 1004 and 988 and 925 and 916 and 1010"},
      {"measurement": "FlexMap NM_001034 LUA#67", "setting": "[1]", "value": "260 and 246 and 32.5 and 280 and 65 and 281 and 253 and 271 and 252 and 276"},
      {"measurement": "FlexMap NM_001101 LUA#34", "setting": "[1]", "value": "3017 and 2733 and 211 and 3046 and 1578 and 3029 and 3195 and 2934 and 2997 and 3139.5"},
      {"measurement": "FlexMap NM_001469 LUA#79", "setting": "[1]", "value": "1315 and 1107 and 73 and 1230 and 333.5 and 1437 and 1331.5 and 1308 and 1281.5 and 1360"},
      {"measurement": "FlexMap NM_001498 LUA#18", "setting": "[1]", "value": "494.5 and 511 and 32 and 521 and 110.5 and 507.5 and 513 and 441.5 and 467 and 531.5"},
      {"measurement": "FlexMap NM_001684 LUA#23", "setting": "[1]", "value": "71 and 75 and 30 and 98 and 38.5 and 66 and 79 and 68 and 77.5 and 83"},
      {"measurement": "FlexMap NM_001948 LUA#84", "setting": "[1]", "value": "72 and 70 and 33 and 79.5 and 40 and 68 (2×) and 70.5 and 62 and 81"},
      {"measurement": "FlexMap NM_002166 LUA#25", "setting": "[1]", "value": "227 and 254.5 and 30 and 237 and 60 and 230 and 240 and 221 and 242"},
      {"measurement": "FlexMap NM_002467 LUA#90", "setting": "[1]", "value": "741 and 823 (2×) and 762.5 and 205 and 792 and 798 and 776 and 759"},
      {"measurement": "FlexMap NM_002468 LUA#40", "setting": "[1]", "value": "531.5 and 584 and 35 and 511 and 135 and 556.5 and 549 and 498 and 494 and 589.5"},
      {"measurement": "FlexMap NM_002539 LUA#74", "setting": "[1]", "value": "416 and 397 and 33 and 437 and 89 and 423 and 409 and 392 and 368 and 441"},
      {"measurement": "FlexMap NM_002624 LUA#36", "setting": "[1]", "value": "1647.5 and 1643 and 71 and 1714 and 670 and 1664 and 1757 and 1580.5 and 1616 and 1772.5"},
      {"measurement": "FlexMap NM_002664 LUA#38", "setting": "[1]", "value": "2701.5 and 2723 and 91 and 2815 and 1002 and 2840.5 and 2805 and 2642 and 2652 and 2875"},
      {"measurement": "FlexMap NM_002970 LUA#42", "setting": "[1]", "value": "1716.5 and 1563 and 42 and 1624 and 435.5 and 1759.5 and 1743 and 1655.5 and 1575 and 1823"},
      {"measurement": "FlexMap NM_002982 LUA#45", "setting": "[1]", "value": "3697 and 3859 and 294 and 3328 and 2094 and 3522 and 3632 and 3562 and 3485 and 3768"}
    ]}
  ]
}
